Results on three compounds are retold here after patent US8617523B2, “Anti-biofilm carbonate compounds for use in oral care compositions” (Colgate-Palmolive Company, priority 2009, dated 2013).

In test [1] the test system is A. naeslundii biofilm. The test is described as follows: crystal violet assay, anti-biofilm (MBEC). Conditions: single species of A. naeslundii biofilm. Type of test: cell-based, Actinomyces naeslundii.
Test [2] concerns A. naeslundii. The test is described as follows: Minimal Inhibitory Concentration (MIC) anti-microbial test. The class given is cell-based. Conditions: Actinomyces naeslundii; single species of A. naeslundii biofilm; read-out: MIC (Minimum Inhibitory Concentration, bactericidal). Here is the method:
The anti-microbial test was measured according to the SOP No. ATO-5308-00 for determination of Minimal Inhibitory Concenctration (MIC).

The structures appear in SMILES notation. ≈ marks a conversion by molar mass, not a printed value.

For `CC(C)C(O)C(C)(C)COC(=O)OC1CCCC1` (stereo not drawn), the “MBEC (Minimum Biofilm Eradication Concentration, anti-biofilm)” value in test [1] came out at 156 ppm. For the same compound, the MIC in test [2] was found to be 625 µg/mL (≈ 2420 µM).
As to `CC(CCCC(C)(C)O)CCOC(=O)Oc1ccccc1` (stereo not drawn), in test [1], the “MBEC (Minimum Biofilm Eradication Concentration, anti-biofilm)” value is on record as 78 ppm. The MIC in test [2] was 156 µg/mL (≈ 530 µM).
The corresponding values for `CCCCC(CC)COC(=O)OCCCCCCO` (stereo not drawn) are 39 ppm and 78 µg/mL (≈ 284 µM).
